Source: PubChem BioAssay AID330 (DTP/NCI, 2004)
“And” between values parts separate entries of the source, which are not always exact repeats. Equal entries are not always repeated. Inconclusive results and toxic doses are left out. How the source made its calls: active means survival T/C of 150% or more; inactive means T/C below 125% in these data. Square brackets hold non-standard residues; d marks the D form. Peptide text beside a SMILES is read from it. Nle = CCCC[CH](N)C(=O)O

Test system: P388 leukemia ip, CD2F1 mice, survival T/C
Test: NCI In Vivo Anticancer Drug Screen. Data for tumor model P388 Leukemia (intraperitoneal) in CD2F1 (CDF1) mice
Conditions: endpoint: median survival time, higher = longer survival
Outline: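 Mice carrying the transplanted tumor received test compound or vehicle. Survival was recorded in each group, and the value is the treated-group measurement divided by that of the vehicle-treated control group.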

[1] = dose: 25.0 mg/kg/injection, schedule: Q01DX009 (ip), vehicle: Klucel (hydroxypropylcellulose) (HPC)
[2] = dose: 50.0 mg/kg/injection, schedule: Q01DX009 (ip), vehicle: Klucel (hydroxypropylcellulose) (HPC)
[3] = dose: 60.0 mg/kg/injection, schedule: Q01DX005 (ip), vehicle: Klucel (hydroxypropylcellulose) (HPC)
[4] = dose: 120.0 mg/kg/injection, schedule: Q01DX005 (ip), vehicle: Klucel (hydroxypropylcellulose) (HPC)
[5] = dose: 240.0 mg/kg/injection, schedule: Q01DX005 (ip), vehicle: Klucel (hydroxypropylcellulose) (HPC)
[6] = dose: 50.0 mg/kg/injection, schedule: Q01DX005 (ip), vehicle: saline
[7] = dose: 100.0 mg/kg/injection, schedule: Q01DX005 (ip), vehicle: saline
[8] = dose: 200.0 mg/kg/injection, schedule: Q01DX005 (ip), vehicle: saline
[9] = dose: 50.0 mg/kg/injection, schedule: Q01DX005 (ip), vehicle: saline with Tween-80
[10] = dose: 100.0 mg/kg/injection, schedule: Q01DX005 (ip), vehicle: saline with Tween-80
[11] = dose: 200.0 mg/kg/injection, schedule: Q01DX005 (ip), vehicle: saline with Tween-80
[12] = dose: 50.0 mg/kg/injection, schedule: Q01DX005 (ip), vehicle: Klucel (hydroxypropylcellulose) (HPC)
[13] = dose: 100.0 mg/kg/injection, schedule: Q01DX005 (ip), vehicle: Klucel (hydroxypropylcellulose) (HPC)
[14] = dose: 200.0 mg/kg/injection, schedule: Q01DX005 (ip), vehicle: Klucel (hydroxypropylcellulose) (HPC)
[15] = dose: 1.5 mg/kg/injection, schedule: Q01DX009 (ip), vehicle: Klucel (hydroxypropylcellulose) (HPC)
[16] = dose: 3.0 mg/kg/injection, schedule: Q01DX009 (ip), vehicle: Klucel (hydroxypropylcellulose) (HPC)
[17] = dose: 6.0 mg/kg/injection, schedule: Q01DX009 (ip), vehicle: Klucel (hydroxypropylcellulose) (HPC)
[18] = dose: 12.0 mg/kg/injection, schedule: Q01DX009 (ip), vehicle: Klucel (hydroxypropylcellulose) (HPC)
[19] = dose: 100.0 mg/kg/injection, schedule: Q04DX002 (ip), vehicle: Klucel (hydroxypropylcellulose) (HPC)
[20] = dose: 200.0 mg/kg/injection, schedule: Q04DX002 (ip), vehicle: Klucel (hydroxypropylcellulose) (HPC)
[21] = dose: 50.0 mg/kg/injection, schedule: Q01DX009 (ip), vehicle: saline with Tween-80
[22] = dose: 100.0 mg/kg/injection, schedule: Q01DX009 (ip), vehicle: saline with Tween-80
[23] = dose: 200.0 mg/kg/injection, schedule: Q01DX009 (ip), vehicle: saline with Tween-80

Measured: T/C

CC1=C[C@H]2[C@@]3(O)[C@H](C)[C@@H](OC(=O)/C=C\c4ccccc4)[C@]4(OC(=O)/C=C\c5ccccc5)[C@H]([C@@H]3C=C(COC(=O)/C=C\c3ccccc3)C[C@]2(O)C1=O)C4(C)C
inactive: dose: 0.18 mg/kg/injection, schedule: Q01DX005 (ip), vehicle: saline + alcohol 92 % of control | dose: 0.35 mg/kg/injection, schedule: Q01DX005 (ip), vehicle: saline + alcohol 95 % of control | dose: 0.7 mg/kg/injection, schedule: Q01DX005 (ip), vehicle: saline + alcohol 95 % of control | dose: 1.4 mg/kg/injection, schedule: Q01DX005 (ip), vehicle: saline + alcohol 95 % of control | dose: 2.8 mg/kg/injection, schedule: Q01DX005 (ip), vehicle: saline + alcohol 102 % of control

Oc1cc(-c2cc3cccc[n+]3o2)cc(O)c1O
inactive: dose: 12.5 mg/kg/injection, schedule: Q01DX009 (ip), vehicle: Klucel (hydroxypropylcellulose) (HPC) 100 % of control | [1] 99 % of control | [2] 100 % of control

CCOC(=O)c1c[nH]c2ccc3c(nc(C)n3C)c2c1=O
inactive: dose: 30.0 mg/kg/injection, schedule: Q01DX005 (ip), vehicle: Klucel (hydroxypropylcellulose) (HPC) 102 % of control and 91 % of control | [3] 103 % of control and 110 % of control and 91 % of control | [4] 112 % of control (2×) and 113 % of control | [5] 115 % of control and 122 % of control and 123 % of control

O=C(CO)C(OC1OC(CO)C(O)C(O)C1O)C(O)C(O)CO (centres undefined)
inactive: [6] 109 % of control | [7] 97 % of control | [8] 109 % of control

CC(=O)NCCSSSCCNC(C)=O
inactive: [6] 115 % of control | [7] 115 % of control

N#CCCn1nc(SCc2ccccc2)c(=S)[nH]c1=O
inactive: [9] 95 % of control | [10] 98 % of control | [11] 100 % of control

C[Si](C)(CC[Si](C)(C)OS(C)(=O)=O)OS(C)(=O)=O
inactive: [12] 101 % of control | [13] 99 % of control | [14] 89 % of control

c1ccc([C@H]2N[C@@H]2c2ccccn2)cc1
inactive: [9] 106 % of control | [10] 93 % of control

Cn1c(=O)c2[nH]c(/N=N/N(CCCl)CCCl)nc2n(C)c1=O
inactive: dose: 25.0 mg/kg/injection, schedule: Q01DX009 (ip), vehicle: saline 100 % of control | dose: 50.0 mg/kg/injection, schedule: Q01DX009 (ip), vehicle: saline 100 % of control | dose: 100.0 mg/kg/injection, schedule: Q01DX009 (ip), vehicle: saline 104 % of control | dose: 200.0 mg/kg/injection, schedule: Q01DX009 (ip), vehicle: saline 107 % of control | dose: 400.0 mg/kg/injection, schedule: Q01DX009 (ip), vehicle: saline 96 % of control

O=C1C(c2ccccc2)=c2c(c3ccccc3c3ccccc23)=C1c1ccccc1
inactive: [12] 99 % of control | dose: 50.0 mg/kg/injection, schedule: Q01DX005 (ip), vehicle: Klucel + Tween-80 89 % of control and 95 % of control | [13] 98 % of control | dose: 100.0 mg/kg/injection, schedule: Q01DX005 (ip), vehicle: Klucel + Tween-80 89 % of control and 104 % of control | [14] 95 % of control | dose: 200.0 mg/kg/injection, schedule: Q01DX005 (ip), vehicle: Klucel + Tween-80 106 % of control

CC1(C)OC1C1CC(C2CCC3(C)C4=CCC5C(C)(C)C(=O)CCC5(C)C4CCC23C)C(O)O1 (centres undefined)
inactive: [15] 90 % of control | [16] 94 % of control | [17] 103 % of control | [18] 100 % of control

Cc1ccc2c(c1)nc(-c1ccccn1)n2CCc1ccccn1
inactive: dose: 50.0 mg/kg/injection, schedule: Q04DX002 (ip), vehicle: Klucel (hydroxypropylcellulose) (HPC) 100 % of control | [19] 102 % of control | [20] 105 % of control

Cc1ncoc1C(=O)Nc1ccc([N+](=O)[O-])cc1[N+](=O)[O-]
inactive: [19] 103 % of control | [20] 100 % of control | dose: 400.0 mg/kg/injection, schedule: Q04DX002 (ip), vehicle: Klucel (hydroxypropylcellulose) (HPC) 105 % of control

CCCCC(N)C(=O)NC(CCSC)C(N)=O (centres undefined) (H-[Nle]-Met-NH2; configuration not given here)
inactive: [6] 100 % of control | [7] 105 % of control | [8] 100 % of control

O=C(c1ccccc1)C(O)NC(=S)c1ccc(Cl)cc1 (centres undefined)
inactive: [21] 107 % of control | [22] 113 % of control | [23] 113 % of control

CC1c2ccccc2CC(CCN(C)C)c2ccccc21 (centres undefined)
inactive: dose: 6.25 mg/kg/injection, schedule: Q01DX005 (ip), vehicle: saline with Tween-80 101 % of control and 102 % of control and 106 % of control | dose: 12.5 mg/kg/injection, schedule: Q01DX005 (ip), vehicle: saline with Tween-80 101 % of control and 109 % of control (2×) | dose: 25.0 mg/kg/injection, schedule: Q01DX005 (ip), vehicle: saline with Tween-80 109 % of control and 97 % of control | [9] 110 % of control

COC(=O)C1C2C=CC(C1C(=O)OC)N(/C=C/c1ccccc1)C2=O (centres undefined)
inactive: dose: 100.0 mg/kg/injection, schedule: Q04DX003 (ip), vehicle: Klucel (hydroxypropylcellulose) (HPC) 96 % of control | dose: 200.0 mg/kg/injection, schedule: Q04DX003 (ip), vehicle: Klucel (hydroxypropylcellulose) (HPC) 95 % of control | dose: 400.0 mg/kg/injection, schedule: Q04DX003 (ip), vehicle: Klucel (hydroxypropylcellulose) (HPC) 97 % of control

CC(C)(C)C(=O)OCn1cc2c(=O)[nH]cnc2n1
inactive: [3] 101 % of control | [4] 100 % of control | [5] 104 % of control

O=C(CNC(=O)C(Cc1c[nH]c2ccccc12)NC(=O)OCc1ccccc1)NCC(=O)OCc1ccccc1 (centres undefined)
inactive: [9] 104 % of control | [10] 100 % of control | [11] 110 % of control

O=C1CN(c2cccc(Cl)c2)C(=O)CN1/N=C/c1ccco1
inactive: [9] 109 % of control | [10] 107 % of control | [11] 98 % of control

COC1/C=C\OC2(C)Oc3c(C)c(O)c4c(O)c(c5[nH]cnc5c4c3C2=O)NC(=O)/C(C)=C\C=C\C(C)C(O)C(C)C(O)C(C)C(OC(C)=O)C1C (centres undefined)
inactive: [1] 102 % of control | [2] 102 % of control | dose: 100.0 mg/kg/injection, schedule: Q01DX009 (ip), vehicle: Klucel (hydroxypropylcellulose) (HPC) 100 % of control | dose: 200.0 mg/kg/injection, schedule: Q01DX009 (ip), vehicle: Klucel (hydroxypropylcellulose) (HPC) 108 % of control

OCCCCCCCCCCCCCC1C=CCC1 (centres undefined)
inactive: dose: 100.0 mg/kg/injection, schedule: Q01DX001 (ip), vehicle: saline 104 % of control | dose: 200.0 mg/kg/injection, schedule: Q01DX001 (ip), vehicle: saline 100 % of control | dose: 400.0 mg/kg/injection, schedule: Q01DX001 (ip), vehicle: saline 100 % of control

Cn1nc([N+](=O)[O-])nc1-c1ccccc1
inactive: [21] 106 % of control | [22] 98 % of control | [23] 107 % of control | dose: 400.0 mg/kg/injection, schedule: Q01DX009 (ip), vehicle: saline with Tween-80 107 % of control

O=C1CC2NC(=O)C(CCCCN1)NC2=O (centres undefined)
inactive: [15] 100 % of control | [16] 99 % of control | [17] 97 % of control | [18] 109 % of control

CCOc1cc2c(C)c3ccccc3c(C)c2c2ccccc12
inactive: dose: 42.0 mg/kg/injection, schedule: Q01DX009 (ip), vehicle: saline with Tween-80 98 % of control | dose: 50.0 mg/kg/injection, schedule: Q04DX003 (ip), vehicle: other 88 % of control | dose: 84.0 mg/kg/injection, schedule: Q01DX009 (ip), vehicle: saline with Tween-80 94 % of control | dose: 100.0 mg/kg/injection, schedule: Q04DX003 (ip), vehicle: other 86 % of control | dose: 168.0 mg/kg/injection, schedule: Q01DX009 (ip), vehicle: saline with Tween-80 107 % of control | dose: 400.0 mg/kg/injection, schedule: Q04DX003 (ip), vehicle: other 86 % of control
